Results reported in PubChem BioAssay (NCI).
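48-hour exposure; five concentrations; linearly interpolated endpoints. GI50 marks 50% less growth. The concentration for full growth arrest is given as TGI.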

Legend:
Experiment in all cases: growth of human tumour cells (NCI), 48 h
EKVX NSCLC = system: EKVX NSCLC
MOLT-4 leukemia = system: MOLT-4 leukemia
SF-268 CNS = system: SF-268 CNS
HOP-92 NSCLC = system: HOP-92 NSCLC
SK-MEL-2 melanoma = system: SK-MEL-2 melanoma
HOP-62 NSCLC = system: HOP-62 NSCLC
RXF 393 renal = system: RXF 393 renal
NCI-H522 lung = system: NCI-H522 lung
HCC-2998 colon = system: HCC-2998 colon
COLO 205 colon = system: COLO 205 colon

Row | Structure (SMILES) | GI50 (EKVX NSCLC) [µM] | TGI (EKVX NSCLC) [µM] | GI50 (MOLT-4 leukemia) [µM] | TGI (MOLT-4 leukemia) [µM] | GI50 (SF-268 CNS) [µM] | TGI (SF-268 CNS) [µM] | GI50 (HOP-92 NSCLC) [µM] | TGI (HOP-92 NSCLC) [µM] | GI50 (SK-MEL-2 melanoma) [µM] | TGI (SK-MEL-2 melanoma) [µM] | GI50 (HOP-62 NSCLC) [µM] | TGI (HOP-62 NSCLC) [µM] | GI50 (RXF 393 renal) [µM] | TGI (RXF 393 renal) [µM] | GI50 (NCI-H522 lung) [µM] | TGI (NCI-H522 lung) [µM] | GI50 (HCC-2998 colon) [µM] | TGI (HCC-2998 colon) [µM] | GI50 (COLO 205 colon) [µM] | TGI (COLO 205 colon) [µM]
1 | CNC(=O)c1c(NC(=O)c2ccc(C(C)(C)C)cc2)sc2c1CCC(=O)C2 | 0.381 | 1.7 | 0.314 | 2.05 | 0.414 | 1.85 | 0.358 | 2.03 | 0.508 | 1.96 | 0.835 | 3.32 | 0.244 | 1.01 | 0.197 | 1.41 | 0.581 | 2.04 | 0.2 | 0.462
2 | CC1/C(=N\O)CC(c2ccccc2)N(C)C1c1ccccc1 (configuration not stated) |  | > 100 |  | > 100 |  | > 100 |  | > 100 |  | > 100 |  | > 100 |  | > 100 |  | > 100 |  | > 100 |  | > 100
3 | CC1CC[P+](c2ccccc2)(c2ccccc2)c2c1ccc1ccccc21 (configuration not stated) | 92 | > 100 |  | 37.6 |  | > 100 |  | 5.43 |  | 7.13 | 11.5 | > 57.5 |  | 43.5 |  | 9.87 |  | 41.9 | 2.02 | 
4 | COc1ccc(CN2c3ccccc3Sc3ccccc32)c(C(F)(F)F)c1 | 1.2 | > 100 | 2.88 | 43.4 | 10.9 | 98.5 | 0.227 | 44.9 | 1.18 | 14.7 | 0.604 | 35.6 | 0.38 | 6.55 | 0.314 | 2.84 | 2 | 10.3 | 0.64 | 3.08
5 | CCOCCCn1c2c(c3c(O)cccc31)C(=O)c1ccccc1-2 | 24.3 | 79 | 13.7 | 32.7 | 18.1 | 50.3 | 16.8 | 43.3 | 20.3 | 38.5 | 17.8 | 48 | 30.3 | 82.1 | 14 | 35.7 | 22.1 | 64.3 | 16 | 33.3
6 | COc1cccc(CC(C)=C(c2ccc(OCCN3CCCCC3)cc2)c2ccc(OCCN3CCCCC3)cc2)c1 | 2.03 | 4.48 | 1.5 | 4.01 | 2.08 | 4.32 | 0.612 | 2.59 | 2.73 | 5.71 | 2.08 | 4.21 | 0.916 | 2.88 | 2.16 | 4.53 | 1.74 | 3.72 | 1.41 | 3.73
7 | CCN(Cc1ccccc1)C1CCN(Cc2cc(Br)ccc2O)CC1 | 31.9 | > 100 | 32.6 | > 100 | 59.7 | > 100 | 10.4 | > 100 | 85.4 | > 100 | > 100 | > 100 | 17.5 | 94.6 | 17 | 40.3 | 33.7 | > 100 | 17 | 39.6
8 | O=C(Nc1ccccc1)Nc1ccc2cc3ccc(NC(=O)Nc4ccccc4)cc3nc2c1 | 4.29 | > 100 | 0.559 | 2.13 | 1.68 | 3.54 | 1.58 | 3.2 | 1.72 | 3.24 | 1.59 | 3.4 | 1.49 | 3.61 | 1.6 | 3.35 | 0.556 | 1.91 | 0.573 | 1.88
9 | CC1=C(SCCC(=O)OC(C[Se]C2=C(C)C(=O)c3ccccc3C2=O)C(=O)NCCCCCC(=O)OCc2ccccc2)C(=O)c2ccccc2C1=O (configuration not stated) | 3.62 | 17.8 | 4.08 | > 100 | 7.33 | 19.9 | 2.7 | 7.89 | 5.5 | 18.9 | 3.82 | 14.4 | 14.9 | 28.3 | 3.96 | 15 | 6.52 | 18.5 | 7.95 | 22.6
10 | O=S(=O)(NNc1ccccc1)c1ccccc1 |  | 31.9 |  | 99 |  | > 100 |  | 55.4 |  | 44.3 |  | 32.7 |  | 38.5 |  | 31.1 |  | > 100 |  | 22.3
11 | CCN(CC)CCCNc1cc(OC)cc2nc3cc(Cl)ccc3nc12 | 3.04 | 14.1 | 1.28 | 13.7 | 1.62 | 8.26 | 1.69 | 9.5 | 1.75 | 3.43 | 2.47 | 8.44 | 1.25 | 2.63 | 1.34 | 3.08 | 1.47 | 2.92 | 0.956 | 2.26
